Experimental data reported in patent US5079241A, “Cephalosporin derivatives and pharmaceutical compositions in which they are present” (Sanofi, priority 1987, dated 1992).
≈ marks a conversion by molar mass, not a printed value.

Key:
[1] = pharmacokinetic behavior in baboons, 20 mg/kg (Tables 5 and 7); assay type: in vivo
Procedure: (§1) Furthermore, the pharmacokinetic behavior of the products according to the invention was studied in baboons after administration at a dose of 20 mg/kg by intramuscular injection or intravenous injection.
(§2) Blood samples taken at various times after administration are used to determine the plasma concentration of the product studied by microbiological assay.
(§3) It is thus possible to construct the curve showing the plasma concentration as a function of time, and to determine different pharmacokinetic parameters of the compound studied:
(§4) the elimination half-life (t1/2 β) is calculated by the formula [formula] in which β represents the elimination gradient or slope;
(§5) the area under the curve (AUC) is determined by the trapezium method.
(§6) The plasma concentrations obtained with various products of the invention are collated in Tables 4 and 5. They are expressed in μg/ml.

[2] = pharmacokinetic behavior in baboons, 20 mg/kg (Tables 4 and 6); assay type: in vivo; details: baboon; for Tmax / Cmax / half-life / AUC(0-t) at 6 h / concentration at 6 h / concentration at 10 min / concentration at 20 min / concentration at 0.5 h / concentration at 0.75 h / concentration at 1 h / concentration at 1.5 h / concentration at 2 h / concentration at 3 h / concentration at 4 h / concentration at 5 h / concentration at 5.5 h: plasma; for Cmax: read-out: Max plasma concentration; for half-life: read-out: t1/2 β; for AUC(0-t) at 6 h: trapezium method; for concentration at 6 h / concentration at 10 min / concentration at 20 min / concentration at 0.5 h / concentration at 0.75 h / concentration at 1 h / concentration at 1.5 h / concentration at 2 h / concentration at 3 h / concentration at 4 h / concentration at 5 h / concentration at 5.5 h / dose excreted at 6 h: 20 mg/kg; for concentration at 0.5 h: 30 minutes; for concentration at 0.75 h: 45 minutes; for concentration at 1 h: 60 minutes; for concentration at 1.5 h: 90 minutes; for concentration at 2 h: 120 minutes; for concentration at 3 h: 180 minutes; for concentration at 4 h: 240 minutes; for concentration at 5 h: 300 minutes; for concentration at 5.5 h: 330 minutes; for dose excreted at 6 h: urine, 6 h (Table 6), read-out: Excretion in the urine
Procedure: as §1, §2, §3, §4, §5, §6

[3] = protein binding by comparing two standard scales in baboon plasma and phosphate buffer; assay type: in vitro ADME; details: baboon plasma vs phosphate buffer (pH 7, 0.03M)
Excerpt: Furthermore, the protein binding is obtained by comparing two standard scales, one being prepared in baboon plasma and the other in phosphate buffer (pH 7, 0.03M).

[4] = system: Escherichia coli C1/Col E1::Tn3; test: bacteriostatic action in vitro by the dilution method (MIC); assay type: cell-based; details: read-out: minimum inhibitory concentrations (MIC)
Procedure: (§7) The bacteriostatic action was determined in vitro by the dilution method. The study was carried out on both Gram-positive strains and Gram-negative strains.
(§8) The results for various products according to the invention, expressed as minimum inhibitory concentrations (MIC - μg/ml), are collated in Table 3.

[5] = system: Escherichia coli SOL RL 90; test: as above; assay type: cell-based; details: SOLRL90, read-out: minimum inhibitory concentrations (MIC)
Procedure: as §7, §8

[6] = system: Klebsiella pneumoniae R30; test: as above; assay type: cell-based; details: read-out: minimum inhibitory concentrations (MIC)
Procedure: as §7, §8

[7] = system: Proteus vulgaris GN 76/C-1; test: as above; assay type: cell-based; details: GN76, read-out: minimum inhibitory concentrations (MIC)
Procedure: as §7, §8

Providencia 155 = test: as above; assay type: cell-based; details: read-out: minimum inhibitory concentrations (MIC)
Procedure: as §7, §8

[8] = system: Pseudomonas aeruginosa NCTC 8203; test: as above; assay type: cell-based; details: NCTC8203, read-out: minimum inhibitory concentrations (MIC)
Procedure: as §7, §8

Staph. aureus Smith = test: as above; assay type: cell-based; details: Staphylococcus aureus, read-out: minimum inhibitory concentrations (MIC)
Procedure: as §7, §8

[9] = 20 mg/kg (Table 6), read-out: Plasma concentration at 6 h
[10] = 360 minutes, read-out: plasma concentration

CC(C)(ON=C(C(=O)NC1C(=O)N2C(C(=O)O)=C(COC(=O)c3ccc(NS(=O)(=O)CCN)cc3)CSC12)c1csc(N)n1)C(=O)O (stereo not shown) [C, reference compound]
Plasma concentration at 24 h ([1]; 20 mg/kg (Table 7)): 7.7 µg/mL
Plasma concentration at 48 h ([1]; 20 mg/kg (Table 7)): 0.6 µg/mL
Cmax ([1]; baboon, plasma, 20 mg/kg (Table 7), read-out: Maximum plasma concentration): 233 µg/mL
half-life ([1]; baboon, plasma, 20 mg/kg (Table 7), read-out: t1/2 β (converted)): 6.3 h
AUC(0-inf) ([1]; baboon, plasma, 20 mg/kg (Table 7), trapezium method, read-out: AUC 0-.infin.): 1210 µg·h/mL
concentration at 0.08 h ([1]; baboon, plasma, 20 mg/kg, 0.08 hours): 233 µg/mL
concentration at 0.16 h ([1]; baboon, plasma, 20 mg/kg, 0.16 hours): 213 µg/mL
concentration at 0.25 h ([1]; baboon, plasma, 20 mg/kg, 0.25 hours): 190 µg/mL
concentration at 0.33 h ([1]; baboon, plasma, 20 mg/kg, 0.33 hours): 170 µg/mL
concentration at 0.5 h ([1]; baboon, plasma, 20 mg/kg, 0.5 hours): 124 µg/mL
concentration at 0.75 h ([1]; baboon, plasma, 20 mg/kg, 0.75 hours): 121 µg/mL
concentration at 1 h ([1]; baboon, plasma, 20 mg/kg, 1 hours): 120 µg/mL
concentration at 1.5 h ([1]; baboon, plasma, 20 mg/kg, 1.5 hours): 112 µg/mL
concentration at 2 h ([1]; baboon, plasma, 20 mg/kg, 2 hours): 98.4 µg/mL
concentration at 3 h ([1]; baboon, plasma, 20 mg/kg, 3 hours): 72.9 µg/mL
concentration at 4 h ([1]; baboon, plasma, 20 mg/kg, 4 hours): 68.7 µg/mL
concentration at 5 h ([1]; baboon, plasma, 20 mg/kg, 5 hours): 62.1 µg/mL
concentration at 6 h ([1]; baboon, plasma, 20 mg/kg, 6 hours): 54.4 µg/mL
concentration at 24 h ([1]; baboon, plasma, 20 mg/kg, 24 hours): 7.7 µg/mL
concentration at 48 h ([1]; baboon, plasma, 20 mg/kg, 48 hours): 0.6 µg/mL
dose excreted at 6 h ([1]; baboon, urine, 20 mg/kg (Table 7), read-out: Excretion in urine at 6 h): 18%

CC(C)(ON=C(C(=O)NC1C(=O)N2C(C(=O)O)=C(COC(=O)c3ccc(NC(=O)CN)cc3)CSC12)c1csc(N)n1)C(=O)O (stereo not shown) [Product A, reference compound]
Tmax ([2]; 20 mg/kg (Table 6)): 0.75 h
Cmax ([2]; 20 mg/kg (Table 6)): 69.5 µg/mL
half-life ([2]; 20 mg/kg (Table 6)): 3.25 h
AUC(0-t) at 6 h ([2]; 20 mg/kg (Table 6)): 284 µg·h/mL
concentration at 6 h [2, 9]: 17.3 µg/mL
concentration at 10 min [2]: 20.8 µg/mL
concentration at 20 min [2]: 36.8 µg/mL
concentration at 0.5 h [2]: 44.4 µg/mL
concentration at 0.75 h [2]: 59.3 µg/mL
concentration at 1 h [2]: 60 µg/mL
concentration at 1.5 h [2]: 55.5 µg/mL
concentration at 2 h [2]: 53.3 µg/mL
concentration at 3 h [2]: 40 µg/mL
concentration at 4 h [2]: 36.2 µg/mL
concentration at 5 h [2]: 27.2 µg/mL
concentration at 5.5 h [2]: 23.7 µg/mL
concentration at 6 h [2, 10]: 17.3 µg/mL
dose excreted at 6 h [2]: 23%
fraction unbound [3]: 0.55

CC(C)(ON=C(C(=O)NC1C(=O)N2C(C(=O)O)=C(COC(=O)c3ccc(NC(=O)CCN)cc3)CSC12)c1csc(N)n1)C(=O)O (stereo not shown) [Product B, reference compound]
Tmax ([2]; 20 mg/kg (Table 6)): 1.5 h
Cmax ([2]; 20 mg/kg (Table 6)): 24.1 µg/mL
half-life ([2]; 20 mg/kg (Table 6)): 1.65 h
AUC(0-t) at 6 h ([2]; 20 mg/kg (Table 6)): 87.9 µg·h/mL
concentration at 6 h [2, 9]: 4.8 µg/mL
concentration at 10 min [2]: 8.5 µg/mL
concentration at 20 min [2]: 16.4 µg/mL
concentration at 0.5 h [2]: 16.9 µg/mL
concentration at 0.75 h [2]: 17.6 µg/mL
concentration at 1 h [2]: 20.7 µg/mL
concentration at 1.5 h [2]: 24.1 µg/mL
concentration at 2 h [2]: 20.7 µg/mL
concentration at 3 h [2]: 17.6 µg/mL
concentration at 4 h [2]: 12.5 µg/mL
concentration at 5 h [2]: 8.3 µg/mL
concentration at 5.5 h [2]: 6.8 µg/mL
concentration at 6 h [2, 10]: 4.8 µg/mL
dose excreted at 6 h [2]: 18%
fraction unbound [3]: 0.52

CC(C)(O/N=C(\C(=O)NC1C(=O)N2C(C(=O)O)=C(COC(=O)c3ccc(NC(=O)CN)c(O)c3)CSC12)c1csc(N)n1)C(=O)O (stereo not drawn) [SR 43753, Bis-trifluoroacetate of 7-2-(2-aminothiazol-4-yl)-2-(2-carboxyprop-2-yloxyimino)acetamido]-3-[[4-(2-aminoacetyl)amino-3-hydroxybenzoyloxymethyl]-3-cephem-4-carboxylic acid, syn isomer]
MIC [4]: 0.12 µg/mL (≈ 0.177 µM)
MIC [5]: 2 µg/mL (≈ 2.95 µM)
MIC [6]: 1 µg/mL (≈ 1.48 µM)
MIC [7]: 0.12 µg/mL (≈ 0.177 µM)
MIC (Providencia 155): 1 µg/mL (≈ 1.48 µM)
MIC [8]: 2 µg/mL (≈ 2.95 µM)
MIC (Staph. aureus Smith): 2 µg/mL (≈ 2.95 µM)
Tmax ([2]; 20 mg/kg (Table 6)): 2 h
Cmax ([2]; 20 mg/kg (Table 6)): 151 µg/mL
AUC(0-t) at 6 h ([2]; 20 mg/kg (Table 6)): 703 µg·h/mL
concentration at 6 h [2, 9]: 80.9 µg/mL
concentration at 10 min [2]: 36.8 µg/mL
concentration at 20 min [2]: 69.1 µg/mL
concentration at 0.5 h [2]: 95.2 µg/mL
concentration at 0.75 h [2]: 129 µg/mL
concentration at 1 h [2]: 139 µg/mL
concentration at 1.5 h [2]: 146 µg/mL
concentration at 2 h [2]: 151 µg/mL
concentration at 3 h [2]: 126 µg/mL
concentration at 4 h [2]: 121 µg/mL
concentration at 5 h [2]: 113 µg/mL
concentration at 5.5 h [2]: 97.6 µg/mL
concentration at 6 h [2, 10]: 80.9 µg/mL
dose excreted at 6 h [2]: 18%
fraction unbound [3]: 0.16

CO/N=C(\C(=O)NC1C(=O)N2C(C(=O)O)=C(COC(=O)c3ccc(NC(=O)CN)c(O)c3)CSC12)c1csc(N)n1 (stereo not shown) [SR 43852]
MIC [4]: 0.06 µg/mL (≈ 0.0991 µM)
MIC [5]: 0.25 µg/mL (≈ 0.413 µM)
MIC [6]: 4 µg/mL (≈ 6.6 µM)
MIC [7]: 16 µg/mL (≈ 26.4 µM)
MIC (Providencia 155): 2 µg/mL (≈ 3.3 µM)
MIC [8]: 2 µg/mL (≈ 3.3 µM)
MIC (Staph. aureus Smith): 0.25 µg/mL (≈ 0.413 µM)
